Experimental findings from ChEMBL document CHEMBL4342445, “Structurally Diverse Meroterpenoids from a Marine-Derived Aspergillus sp. Fungus” (J Nat Prod, 2020) are described below.

Molecules are shown by their SMILES. The source made the active and inactive calls. The calls are words filed in the database; no cut-off is given here.

The test deals with Acetylcholinesterase (Homo sapiens) (UniProt P22303). As to the kind of experiment: Inhibition of human erythrocytes AChE at 50 uM using acetylthiocholine iodide as substrate preincubated for 20 mins followed by substrate addition and measured every 30 secs for 1 hr by spectrophotometry based Ellman's method. On the technique in general: In Ellman's method for cholinesterases, released thiocholine reacts with DTNB.
Chain of Acetylcholinesterase (Homo sapiens) (P22303 whole entry): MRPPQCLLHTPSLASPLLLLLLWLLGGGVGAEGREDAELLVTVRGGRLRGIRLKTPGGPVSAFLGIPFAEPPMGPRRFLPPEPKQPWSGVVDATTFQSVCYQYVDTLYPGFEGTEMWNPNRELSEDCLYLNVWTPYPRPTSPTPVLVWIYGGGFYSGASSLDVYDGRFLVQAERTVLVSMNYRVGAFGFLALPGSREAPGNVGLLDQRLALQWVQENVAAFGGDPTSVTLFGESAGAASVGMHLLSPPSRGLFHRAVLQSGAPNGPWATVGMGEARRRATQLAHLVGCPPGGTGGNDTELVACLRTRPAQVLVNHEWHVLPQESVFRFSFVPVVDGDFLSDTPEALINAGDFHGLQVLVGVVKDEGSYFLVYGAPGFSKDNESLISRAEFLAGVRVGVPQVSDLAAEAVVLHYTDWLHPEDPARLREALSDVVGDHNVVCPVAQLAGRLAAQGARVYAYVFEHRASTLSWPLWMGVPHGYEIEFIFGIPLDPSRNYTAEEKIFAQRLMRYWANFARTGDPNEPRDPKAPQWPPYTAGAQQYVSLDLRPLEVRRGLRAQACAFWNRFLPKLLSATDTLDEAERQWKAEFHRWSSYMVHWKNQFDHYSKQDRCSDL

Turning to `C=C1[C@@]2(C)CC3=C(C)[C@]4(C=CC(=O)OC4(C)C)CC[C@]3(C)[C@@]13C(=O)O[C@@H](C)[C@@]3(O)C2=O`, the inhibition entry was “inactive”.
The entry for `C=C1[C@]2(C)C(=O)[C@]3(O)[C@H](C)OC(=O)[C@]13[C@@]1(C)CC[C@@]3(C=CC(=O)OC3(C)C)C(C)=C1[C@@H]2OC(C)=O` is “inactive”; for `C=C1[C@@]2(C)C[C@]3(C)[C@](C)(CC[C@@H]4C(C)(C)OC(=O)C=C[C@]43C)[C@@]13C(=O)O[C@H](C)[C@@]3(O)C2=O` it is “inactive”.
The entry for `C=C1[C@@]2(C)C[C@H]3[C@]4(C)C=CC(=O)OC(C)(C)[C@H]4CC[C@]3(C)[C@]1(C(=O)OC)C(=O)[C@@](C)(O)C2=O` is “inactive”.
The entry for `C=C1[C@@]2(C)CC3=C(C)[C@]4(C=CC(=O)OC4(C)C)CC[C@]3(C)[C@@]13C(=O)O[C@H](C)[C@@]3(O)C2=O` is “inactive”; for `C=C1[C@@]23C(=O)O[C@H](C)[C@]24O[C@@]2(C(=C)[C@]5(C=CC(=O)OC5(C)C)CC[C@]32C)[C@H](OC(C)=O)[C@@]1(C)OC4=O` it is “inactive”.
Take `C=C1[C@@]23C(=O)O[C@H](C)[C@]24O[C@@]2(C(=C)[C@]5(CCC(=O)OC5(C)C)C[C@@H](OC(=O)/C(C)=C/C)[C@]32C)[C@H](OC(C)=O)[C@@]1(C)OC4=O`: the inhibition result was “inactive”.
The entry for `C=C1[C@@]2(C(=O)OC)C(=O)[C@H](O)[C@]1(C)CC1=C(C)[C@]3(C=CC(=O)OC3(C)C)CC[C@@]12C` is “inactive”; for `C=C1[C@@]23C(=O)O[C@H](C)[C@@]2(O)C(=O)O[C@]1(C)[C@@H](OC(C)=O)C1=C(C)[C@]2(C=CC(=O)OC2(C)C)CC[C@@]13C` it is “inactive”.
